The compounds below were run against HCV NS3-4A serine protease (full-length NS3-4A protein) (Hepatitis C virus genotype 1a (isolate 1) (HCV), UniProt P26664) (assay: HCV NS3-4A protease assay). Details: strain HCV-1, fluorogenic peptide substrate, read-out: Protease assay Ex. 12 IC50.
Format: biochemical, HCV genotype 1a
Procedure: The inhibitory activity of certain compounds of Table A against HCV NS3-4A serine protease is determined in a homogenous assay using the full-length NS3-4A protein (genotype 1a, strain HCV-1) and a commercially available internally-quenched fluorogenic peptide substrate as described by Taliani, M., et al. 1996 Anal. Biochem. 240:60-67, which is incorporated by reference in its entirety.

Chain of HCV NS3-4A serine protease (full-length NS3-4A protein) (P26664 1027-1657): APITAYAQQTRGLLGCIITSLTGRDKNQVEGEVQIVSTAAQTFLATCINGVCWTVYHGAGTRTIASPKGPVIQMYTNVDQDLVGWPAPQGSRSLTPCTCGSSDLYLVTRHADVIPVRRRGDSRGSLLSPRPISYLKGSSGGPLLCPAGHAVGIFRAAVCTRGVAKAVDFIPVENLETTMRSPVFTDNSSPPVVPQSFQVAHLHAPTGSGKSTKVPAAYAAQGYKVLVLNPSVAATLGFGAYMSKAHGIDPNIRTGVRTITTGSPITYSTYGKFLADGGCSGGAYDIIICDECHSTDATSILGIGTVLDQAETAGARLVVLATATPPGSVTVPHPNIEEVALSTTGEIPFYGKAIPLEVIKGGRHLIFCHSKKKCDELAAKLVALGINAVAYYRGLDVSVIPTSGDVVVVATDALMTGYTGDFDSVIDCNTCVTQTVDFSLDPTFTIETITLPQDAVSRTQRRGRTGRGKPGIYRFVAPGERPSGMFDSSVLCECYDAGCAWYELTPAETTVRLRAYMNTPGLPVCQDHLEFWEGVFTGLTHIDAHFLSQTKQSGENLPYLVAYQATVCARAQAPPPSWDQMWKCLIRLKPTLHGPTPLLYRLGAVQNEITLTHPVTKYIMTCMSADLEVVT
Chain of HCV NS3-4A serine protease (full-length NS3-4A protein) (P26664 1658-1711 partner): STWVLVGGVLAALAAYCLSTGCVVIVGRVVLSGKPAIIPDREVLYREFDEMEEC

SMILES | IC50 [µM]
C=C[C@@H]1C[C@]1(NC(=O)[C@@H]1C[C@@]2(CN1C(=O)[C@@H](NC(=O)[C@@H](NC(=O)[C@H]1CCCCN1C(C)C)C1CCCCC1)C(C)(C)C)C(C)(C)C21CCC1)C(=O)NS(=O)(=O)N(C)CCC [Compound 114, (5R,8S)-7-[(2S)-2-{[(2S)-2-cyclohexyl-2-({[(2R)-1-isopropylpiperidin-2-yl]carbonyl}amino)acetyl]amino}-3,3-dimethylbutanoyl]-10,10-dimethyl-N-[(1R,2S)-1-({[methyl(propyl)amino]sulfonyl}carbamoyl)-2-vinylcyclopropyl]-7-azadispiro[3.0.4.1]decane-8-carboxamide] | 0.0045
C=C[C@@H]1C[C@]1(NC(=O)[C@@H]1C[C@@]2(CN1C(=O)[C@@H](NC(=O)[C@@H](NC(=O)[C@@H]1CCCCN1CCF)C(C)(C)C)C(C)(C)C)C(C)(C)C21CCC1)C(=O)NS(=O)(=O)N1CCOCC1 [Compound 8, (5R,8S)-7-[(2S)-2-{[(2S)-2-({[(2S)-1-(2-fluoroethyl)piperidin-2-yl]carbonyl}amino)-3,3-dimethylbutanoyl]amino}-3,3-dimethylbutanoyl]-10,10-dimethyl-N-{(1R,2S)-1-[(morpholin-4-ylsulfonyl)carbamoyl]-2-vinylcyclopropyl}-7-azadispiro[3.0.4.1]decane-8-carboxamide] | 0.3
C=C[C@@H]1C[C@]1(NC(=O)[C@@H]1C[C@@]2(CN1C(=O)[C@@H](NC(=O)[C@@H](NC(=O)c1ccc3occc3c1)C1CCCCC1)C(C)(C)C)C(C)(C)C21CCC1)C(=O)NS(=O)(=O)N1CCCC1 [Compound 192, (5R,8S)-7-[(2S)-2-({[(1-benzofuran-5-ylcarbonyl)amino](cyclohexyl)acetyl}amino)-3,3-dimethylbutanoyl]-10,10-dimethyl-N-{(1R,2S)-1-[(pyrrolidin-1-ylsulfonyl)carbamoyl]-2-vinylcyclopropyl}-7-azadispiro[3.0.4.1]decane-8-carboxamide] | 0.025
C=C[C@@H]1C[C@]1(NC(=O)[C@@H]1C[C@@]2(CN1C(=O)[C@@H](NC(=O)[C@@H](NC(=O)[C@@H]1CCCCN1C1CCCC1)C1CCCCC1)C(C)(C)C)C(C)(C)C21CCC1)C(=O)NS(=O)(=O)N1CCCC1 [Compound 32, (5R,8S)-7-[(2S)-2-{[(2S)-2-cyclohexyl-2-({[(2S)-1-cyclopentylpiperidin-2-yl]carbonyl}amino)acetyl]amino}-3,3-dimethylbutanoyl]-10,10-dimethyl-N-{(1R,2S)-1-[(pyrrolidin-1-ylsulfonyl)carbamoyl]-2-vinylcyclopropyl}-7-azadispiro[3.0.4.1]decane-8-carboxamide] | 0.001
C=C[C@@H]1C[C@]1(NC(=O)[C@@H]1C[C@@]2(CN1C(=O)[C@@H](NC(=O)[C@@H](NC(=O)c1cc(C(C)(C)C)nn1C)C1CCCCC1)C(C)(C)C)C(C)(C)C21CCC1)C(=O)NS(=O)(=O)N1CCCC1 [Compound 181, (5R,8S)-7-[(2S)-2-{[{[(3-tert-butyl-1-methyl-1H-pyrazol-5-yl)carbonyl]amino}(cyclohexyl)acetyl]amino}-3,3-dimethylbutanoyl]-10,10-dimethyl-N-{(1R,2S)-1-[(pyrrolidin-1-ylsulfonyl)carbamoyl]-2-vinylcyclopropyl}-7-azadispiro[3.0.4.1]decane-8-carboxamide] | 0.09
C=C[C@@H]1C[C@]1(NC(=O)[C@@H]1C[C@@]2(CN1C(=O)[C@@H](NC(=O)[C@@H](NC(=O)[C@@H]1CCCCN1C(C)C)C(C)C)C(C)C)C(C)(C)C21CCC1)C(=O)NS(=O)(=O)N(CC)CC [Compound 130, (5R,8S)-N-[(1R,2S)-1-{[(diethylamino)sulfonyl]carbamoyl}-2-vinylcyclopropyl]-7-[(2S)-2-{[(2S)-2-({[(2S)-1-isopropylpiperidin-2-yl]carbonyl}amino)-3-methylbutanoyl]amino}-3-methylbutanoyl]-10,10-dimethyl-7-azadispiro[3.0.4.1]decane-8-carboxamide] | 0.008
CC[C@@H]1C[C@]1(NC(=O)[C@@H]1C[C@@]2(CN1C(=O)[C@@H](NC(=O)[C@@H](NC(=O)[C@@H]1CCCCN1C(C)C)C1CCCCC1)C(C)(C)C)C(C)(C)C21CCC1)C(=O)NS(=O)(=O)N(C)C(C)C [Compound 141, (5R,8S)-7-[(2S)-2-{[(2S)-2-cyclohexyl-2-({[(2S)-1-isopropylpiperidin-2-yl]carbonyl}amino)acetyl]amino}-3,3-dimethylbutanoyl]-N-[(1R,2R)-2-ethyl-1-({[isopropyl(methyl)amino]sulfonyl}carbamoyl)cyclopropyl]-10,10-dimethyl-7-azadispiro[3.0.4.1]decane-8-carboxamide] | 0.008
C=C[C@@H]1C[C@]1(NC(=O)[C@@H]1C[C@@]2(CN1C(=O)[C@@H](NC(=O)[C@@H](NC(=O)[C@@H](OC)c1ccccc1)C1CCCCC1)C(C)(C)C)C(C)(C)C21CCC1)C(=O)NS(=O)(=O)N1CCCC1 [Compound 193, (5R,8S)-7-{(2S)-2-[(cyclohexyl{[(2S)-2-methoxy-2-phenylacetyl]amino}acetyl)amino]-3,3-dimethylbutanoyl}-10,10-dimethyl-N-{(1R,2S)-1-[(pyrrolidin-1-ylsulfonyl)carbamoyl]-2-vinylcyclopropyl}-7-azadispiro[3.0.4.1]decane-8-carboxamide] | 0.025
C=C[C@@H]1C[C@]1(NC(=O)[C@@H]1C[C@@]2(CN1C(=O)[C@@H](NC(=O)[C@@H](NC(=O)[C@@H]1CCCCN1CCOC)C1CCCCC1)C(C)(C)C)C(C)(C)C21CCC1)C(=O)NS(=O)(=O)N1CCCC1 [Compound 33, (5R,8S)-7-[(2S)-2-{[(2S)-2-cyclohexyl-2-({[(2S)-1-(2-methoxyethyl)piperidin-2-yl]carbonyl}amino)acetyl]amino}-3,3-dimethylbutanoyl]-10,10-dimethyl-N-{(1R,2S)-1-[(pyrrolidin-1-ylsulfonyl)carbamoyl]-2-vinylcyclopropyl}-7-azadispiro[3.0.4.1]decane-8-carboxamide] | 0.0035
C=C[C@@H]1C[C@]1(NC(=O)[C@@H]1C[C@@]2(CN1C(=O)[C@@H](NC(=O)[C@@H](NC(=O)c1cc3ccccc3[nH]1)C1CCCCC1)C(C)(C)C)C(C)(C)C21CCC1)C(=O)NS(=O)(=O)N1CCCC1 [Compound 188, (5R,8S)-7-[(2S)-2-({cyclohexyl[(1H-indol-2-ylcarbonyl)amino]acetyl}amino)-3,3-dimethylbutanoyl]-10,10-dimethyl-N-{(1R,2S)-1-[(pyrrolidin-1-ylsulfonyl)carbamoyl]-2-vinylcyclopropyl}-7-azadispiro[3.0.4.1]decane-8-carboxamide] | 0.02
C=C[C@@H]1C[C@]1(NC(=O)[C@@H]1C[C@@]2(CN1C(=O)[C@@H](NC(=O)[C@@H](NC(=O)c1cc3ccccc3o1)C1CCCCC1)C(C)(C)C)C(C)(C)C21CCC1)C(=O)NS(=O)(=O)N1CCCC1 [Compound 191, (5R,8S)-7-[(2S)-2-({[(1-benzofuran-2-ylcarbonyl)amino](cyclohexyl)acetyl}amino)-3,3-dimethylbutanoyl]-10,10-dimethyl-N-{(1R,2S)-1-[(pyrrolidin-1-ylsulfonyl)carbamoyl]-2-vinylcyclopropyl}-7-azadispiro[3.0.4.1]decane-8-carboxamide] | 0.055
C=C[C@@H]1C[C@]1(NC(=O)[C@@H]1C[C@@]2(CN1C(=O)[C@@H](NC(=O)[C@@H](NC(=O)[C@@H]1CCCN1C(C)=O)C1CCCCC1)C(C)(C)C)C(C)(C)C21CCC1)C(=O)NS(=O)(=O)N1CCCC1 [Compound 187, (5R,8S)-7-[(2S)-2-{[({[(2S)-1-acetylpyrrolidin-2-yl]carbonyl}amino)(cyclohexyl)acetyl]amino}-3,3-dimethylbutanoyl]-10,10-dimethyl-N-{(1R,2S)-1-[(pyrrolidin-1-ylsulfonyl)carbamoyl]-2-vinylcyclopropyl}-7-azadispiro[3.0.4.1]decane-8-carboxamide] | 0.025
CC[C@@H]1C[C@]1(NC(=O)[C@@H]1C[C@@]2(CN1C(=O)[C@@H](NC(=O)[C@@H](NC(=O)[C@@H]1CCCN1CC)C1CCCCC1)C(C)(C)C)C(C)(C)C21CCC1)C(=O)NS(=O)(=O)N1CCCC1 [Compound 99, (5R,8S)-7-[(2S)-2-{[(2S)-2-cyclohexyl-2-({[(2S)-1-ethylpyrrolidin-2-yl]carbonyl}amino)acetyl]amino}-3,3-dimethylbutanoyl]-N-{(1R,2R)-2-ethyl-1-[(pyrrolidin-1-ylsulfonyl)carbamoyl]cyclopropyl}-10,10-dimethyl-7-azadispiro[3.0.4.1]decane-8-carboxamide] | 0.02
C=C[C@@H]1C[C@]1(NC(=O)[C@@H]1C[C@@]2(CN1C(=O)[C@@H](NC(=O)[C@@H](NC(=O)c1cnccn1)C1CCCCC1)C(C)(C)C)C(C)(C)C21CCC1)C(=O)NS(=O)(=O)NC(C)(C)C [Compound 166, (5R,8S)-N-[(1R,2S)-1-{[(tert-butylamino)sulfonyl]carbamoyl}-2-vinylcyclopropyl]-7-[(2S)-2-({(2S)-2-cyclohexyl-2-[(pyrazin-2-ylcarbonyl)amino]acetyl}amino)-3,3-dimethylbutanoyl]-10,10-dimethyl-7-azadispiro[3.0.4.1]decane-8-carboxamide] | 0.01
C=C[C@@H]1C[C@]1(NC(=O)[C@@H]1C[C@@]2(CN1C(=O)[C@@H](NC(=O)[C@@H](NC(=O)[C@@H]1CCCCN1C(C)C)C1CCCCC1)C(C)(C)C)C(C)(C)C21CCC1)C(=O)NS(=O)(=O)N(CC)CC [Compound 174, (5R,8S)-7-[(2S)-2-{[(2S)-2-cyclohexyl-2-({[(2S)-1-isopropylpiperidin-2-yl]carbonyl}amino)acetyl]amino}-3,3-dimethylbutanoyl]-N-[(1R,2S)-1-{[(diethylamino)sulfonyl]carbamoyl}-2-vinylcyclopropyl]-10,10-dimethyl-7-azadispiro[3.0.4.1]decane-8-carboxamide] | 0.0006
